Experimental data taken from ChEMBL document CHEMBL1136638, “N-Benzoyl amino acids as LFA-1/ICAM inhibitors 1: amino acid structure-activity relationship” (Bioorg Med Chem Lett, 2003).

Target: Intercellular adhesion molecule (ICAM-1), Integrin alpha-L/beta-2 (Homo sapiens, UniProt P05107+P05362+P20701)
Assay: Concentration required to inhibit binding of ICAM-1 to LFA-1 (Leukocyte function-associated antigen-1), evaluated ELISA
Format: protein-complex assay

Sequence of Intercellular adhesion molecule (ICAM-1), Integrin alpha-L/beta-2 (P20701 whole entry): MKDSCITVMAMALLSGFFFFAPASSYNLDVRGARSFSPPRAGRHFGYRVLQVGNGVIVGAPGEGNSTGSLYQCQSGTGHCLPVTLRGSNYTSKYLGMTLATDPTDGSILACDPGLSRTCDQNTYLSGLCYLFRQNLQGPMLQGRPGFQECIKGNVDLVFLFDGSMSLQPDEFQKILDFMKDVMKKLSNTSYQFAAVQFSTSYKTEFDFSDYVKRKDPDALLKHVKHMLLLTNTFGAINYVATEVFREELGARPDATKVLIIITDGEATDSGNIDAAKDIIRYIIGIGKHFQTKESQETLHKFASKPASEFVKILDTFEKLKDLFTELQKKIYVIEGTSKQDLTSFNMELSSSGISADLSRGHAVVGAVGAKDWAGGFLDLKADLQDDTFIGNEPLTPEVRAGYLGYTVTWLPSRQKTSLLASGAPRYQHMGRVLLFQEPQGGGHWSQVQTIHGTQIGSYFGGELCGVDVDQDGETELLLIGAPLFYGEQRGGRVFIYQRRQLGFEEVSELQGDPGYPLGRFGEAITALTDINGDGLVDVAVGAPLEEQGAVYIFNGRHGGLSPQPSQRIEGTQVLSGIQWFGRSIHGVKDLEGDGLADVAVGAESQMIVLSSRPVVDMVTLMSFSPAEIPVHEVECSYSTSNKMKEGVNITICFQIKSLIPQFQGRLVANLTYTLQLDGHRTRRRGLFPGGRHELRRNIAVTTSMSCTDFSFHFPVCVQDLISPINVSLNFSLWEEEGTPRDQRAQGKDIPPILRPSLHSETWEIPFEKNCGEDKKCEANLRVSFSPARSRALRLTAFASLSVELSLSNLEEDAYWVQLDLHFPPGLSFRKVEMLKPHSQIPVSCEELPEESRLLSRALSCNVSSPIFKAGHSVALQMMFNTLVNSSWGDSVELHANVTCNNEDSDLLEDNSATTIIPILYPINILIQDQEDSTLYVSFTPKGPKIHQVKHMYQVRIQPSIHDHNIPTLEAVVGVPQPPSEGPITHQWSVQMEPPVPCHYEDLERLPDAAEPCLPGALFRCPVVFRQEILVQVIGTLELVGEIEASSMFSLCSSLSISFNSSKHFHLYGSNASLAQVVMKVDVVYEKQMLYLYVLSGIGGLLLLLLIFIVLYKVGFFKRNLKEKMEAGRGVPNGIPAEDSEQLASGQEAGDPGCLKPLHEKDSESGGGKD
Sequence of Intercellular adhesion molecule (ICAM-1), Integrin alpha-L/beta-2 (P05362 whole entry): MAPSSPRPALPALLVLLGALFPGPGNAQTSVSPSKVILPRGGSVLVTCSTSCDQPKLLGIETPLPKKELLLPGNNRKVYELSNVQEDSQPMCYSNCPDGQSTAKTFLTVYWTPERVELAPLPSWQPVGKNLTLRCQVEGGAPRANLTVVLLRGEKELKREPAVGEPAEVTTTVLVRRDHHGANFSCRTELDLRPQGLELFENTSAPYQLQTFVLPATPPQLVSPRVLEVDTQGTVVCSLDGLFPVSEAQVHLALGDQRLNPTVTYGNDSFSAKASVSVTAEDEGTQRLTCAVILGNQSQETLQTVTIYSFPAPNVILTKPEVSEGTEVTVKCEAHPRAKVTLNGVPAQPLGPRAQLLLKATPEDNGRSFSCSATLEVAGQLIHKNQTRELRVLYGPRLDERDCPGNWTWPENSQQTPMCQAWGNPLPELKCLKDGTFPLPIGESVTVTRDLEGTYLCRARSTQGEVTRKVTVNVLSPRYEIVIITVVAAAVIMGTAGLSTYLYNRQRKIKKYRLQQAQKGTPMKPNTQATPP
Sequence of Intercellular adhesion molecule (ICAM-1), Integrin alpha-L/beta-2 (P05107 whole entry): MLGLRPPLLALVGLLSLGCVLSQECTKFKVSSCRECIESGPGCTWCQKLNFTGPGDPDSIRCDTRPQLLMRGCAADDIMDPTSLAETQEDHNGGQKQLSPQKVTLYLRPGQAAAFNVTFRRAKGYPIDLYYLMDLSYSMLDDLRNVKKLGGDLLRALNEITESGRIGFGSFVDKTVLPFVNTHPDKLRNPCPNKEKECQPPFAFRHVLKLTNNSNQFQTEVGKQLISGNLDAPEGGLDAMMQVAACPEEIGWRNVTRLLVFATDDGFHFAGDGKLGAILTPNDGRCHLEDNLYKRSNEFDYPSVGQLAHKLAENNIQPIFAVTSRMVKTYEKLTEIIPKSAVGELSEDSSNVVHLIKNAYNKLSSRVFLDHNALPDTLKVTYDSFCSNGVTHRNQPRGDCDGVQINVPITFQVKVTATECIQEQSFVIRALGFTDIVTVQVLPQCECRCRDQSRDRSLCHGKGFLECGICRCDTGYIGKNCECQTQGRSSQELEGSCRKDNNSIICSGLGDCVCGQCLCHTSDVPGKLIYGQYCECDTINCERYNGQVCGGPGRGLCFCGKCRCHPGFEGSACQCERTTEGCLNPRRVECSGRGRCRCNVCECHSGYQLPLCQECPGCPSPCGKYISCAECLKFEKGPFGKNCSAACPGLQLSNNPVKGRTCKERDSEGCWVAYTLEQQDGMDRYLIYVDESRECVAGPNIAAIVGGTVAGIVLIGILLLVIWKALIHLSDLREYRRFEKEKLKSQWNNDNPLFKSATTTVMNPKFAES

| SMILES | IC50 [µM] |
| --- | --- |
| O=C(O)CNC(=O)c1ccccc1Br | 314 |
| C[C@H](NC(=O)c1ccccc1Br)C(=O)O | 6.64 |
| CC(C)C[C@H](NC(=O)c1ccccc1Br)C(=O)O | 54.3 |
| CSCC[C@H](NC(=O)c1ccccc1Br)C(=O)O | 7.46 |
| O=C(O)CC[C@H](NC(=O)c1ccccc1Br)C(=O)O | 30.1 |
| O=C(N[C@@H](Cc1cnc[nH]1)C(=O)O)c1ccccc1Br | 0.75 |
| N=C(N)NCCC[C@H](NC(=O)c1ccccc1Br)C(=O)O | 2.71 |
| NC(=O)CC[C@H](NC(=O)c1ccccc1Br)C(=O)O | 1.77 |
| NC(=O)C[C@H](NC(=O)c1ccccc1Br)C(=O)O | 1.08 |
| CC[C@H](C)[C@H](NC(=O)c1ccccc1Br)C(=O)O | 106 |
| O=C(O)C[C@H](NC(=O)c1ccccc1Br)C(=O)O | > 200 |
| C[C@@H](O)[C@H](NC(=O)c1ccccc1Br)C(=O)O | 3.84 |
| NCCCC[C@H](NC(=O)c1ccccc1Br)C(=O)O | 1.21 |
| O=C(O)[C@@H]1CCCN1C(=O)c1ccccc1Br | > 1000 |
| C[C@@H](NC(=O)c1ccccc1Br)C(=O)O | 57.5 |
| O=C(NCCc1c[nH]c2ccccc12)c1ccccc1Br | > 1000 |
| CC(C)[C@H](NC(=O)c1ccccc1Br)C(=O)O | 11.3 |

Other lines, results leading:

| IC50 [µM] | SMILES |
| --- | --- |
| 36.8 | N#Cc1ccc(C[C@H](NC(=O)c2ccccc2Br)C(=O)O)cc1 |
| 63.8 | O=C(N[C@@H](Cc1c[nH]c2ncccc12)C(=O)O)c1ccccc1Br |
| 5.5 | O=C(N[C@@H](Cc1cccs1)C(=O)O)c1ccccc1Br |
| 50.5 | O=C(N[C@@H](Cc1ccc(-c2ccccc2)cc1)C(=O)O)c1ccccc1Br |
| 24.2 | O=C(N[C@@H](Cc1c[nH]c2ccc(O)cc12)C(=O)O)c1ccccc1Br |
| 243 | O=C(N[C@H](Cc1ccc2ccccc2c1)C(=O)O)c1ccccc1Br |
| 4.89 | O=C(N[C@@H](Cc1ccccc1)C(=O)O)c1ccccc1Br |
| 7.64 | O=C(N[C@@H](Cc1c[nH]c2cc(F)ccc12)C(=O)O)c1ccccc1Br |
| > 200 | O=C(N[C@H](Cc1cccc2ccccc12)C(=O)O)c1ccccc1Br |
| 140 | O=C(N[C@@H](Cc1c[nH]c2ccccc12)C(=O)NO)c1ccccc1Br |
| 2.77 | COc1ccc2[nH]cc(C[C@H](NC(=O)c3ccccc3Br)C(=O)O)c2c1 |
| 28.4 | O=C(N[C@@H](Cc1c[nH]c2ccc(Br)cc12)C(=O)O)c1ccccc1Br |
| 4.26 | O=C(N[C@@H](CS)C(=O)O)c1ccccc1Br |
| 1.7 | O=C(N[C@@H](Cc1c[nH]c2ccccc12)C(=O)O)c1ccccc1Br |
| 72.6 | O=C(N[C@H](CO)C(=O)O)c1ccccc1Br |
| 76.6 | O=C(N[C@H](Cc1c[nH]c2ccccc12)C(=O)O)c1ccccc1Br |
| > 1000 | NC(=O)[C@H](Cc1c[nH]c2ccccc12)NC(=O)c1ccccc1Br |
| 5.09 | O=C(N[C@@H](CCc1ccccc1)C(=O)O)c1ccccc1Br |
| 24.4 | O=C(N[C@@H](Cc1ccc2ccccc2c1)C(=O)O)c1ccccc1Br |
| 280 | O=C(N[C@H](Cc1ccccc1)C(=O)O)c1ccccc1Br |
| 10.8 | O=C(N[C@@H](Cc1c[nH]c2ccc(F)cc12)C(=O)O)c1ccccc1Br |
| 6.15 | O=C(N[C@@H](CO)C(=O)O)c1ccccc1Br |
| 1.09 | O=C(N[C@@H](Cc1ccc(O)cc1)C(=O)O)c1ccccc1Br |
| 15.9 | O=C(N[C@@H](Cc1cccc2ccccc12)C(=O)O)c1ccccc1Br |
| > 1000 | COC(=O)[C@H](Cc1c[nH]c2ccccc12)NC(=O)c1ccccc1Br |
